Consider four compounds from patent US5958770A, “Glycoalkaloids” (priority 1990, dated 1999).

The subject of one data set is tumour. The note with it: cited from earlier work.
The nature of data set [1]: Inhibition of tritiated thymidine uptake, Con A stimulated lymphocytes. The settings on record: human, con a stimulated lymphocytes.
Data set [2] relates to ovarian cancer cells, HeLa cells, lymphoblastoid cells, fibroblasts. Description: Cytotoxicity / inhibition of tritiated thymidine uptake, cell types taken together. As to the method: (§1) The inhibition of cell replication by steroid alkaloids is determined by the inhibition of the incorporation of ^3 H thymidine into DNA. Using this technique, it should be possible to monitor any preferential inhibition of uptake of ^3 H thymidine by cancer cells.
(§2) Cells were maintained as monolayers in RPM1-1640 tissue culture media (Grant Island Biological Co) buffered with N-2-hydroxy-ethylpiperazine-N-2-ethanesulphonic acid pH 7.5 and supplemented with 10% heat inactivated fetal calf serum (FCS): (i) a human ovarian cancer cell line (C180-135), (ii) HeLa cells, (iii) human fibroblasts, and (iv) as a cell suspension of lymphoblastoid cells (EBV transformed lymphocytes). Monolayers were trypsinized to form a cell suspension. […] Cell concentration was adjusted to 2×10^5 cells/ml, and 2×10^4 cells were added in replicates of 10 to the wells (1×10^5 /ml well) of HA microtitre plates (Millipore Corp., USA). The cells were preincubated at 37.5° C. for 7 hours prior to the addition of 50 μl of the cytotoxic drug followed by the addition of 50 μl 5 uCi/ml of ^3 H thymidine, in the same tissue culture media 21 hours later. Incubation was continued for a total of 24 hours, which includes the pre-incubation time.
(§3) Appropriate DMSO cytotoxicity studies were also conducted. Solasodine glycosides were supplied as a mixture (BEC), and as separate components, solamargine, solasonine, a mixture of di- and mono-glycosides and the aglycone solasodine. All cytotoxic drugs were further diluted with HIFCS/TCM before testing. 5×10^4 ovarian cancer cells (200 μl/chamber of a chamber of microscope slide (Lab Tek Miles Scientific) were used. Controls received 50 μl HIFCS/TCM and experimental chambers 50 μl of solasodine glycosides (BEC) 1.5-3.8 μM/L after 7 hrs preincubation, and incubated for a further 3 hrs. Similarly, the cells were treated with the aglycone solasodine 19.4-96.8 μM/L. The cells were fixed and examined by the Papanicolaou method.

Data set [3] concerns ovarian cancer cells. Description: Inhibition of tritiated thymidine uptake, ovarian cancer cells. As to the method:
as §1, §2, §3

Data set [4] in a line: Inhibition of tritiated thymidine uptake, PHA stimulated lymphocytes. The note with it: human, pha stimulated lymphocytes.
Experimental: (§4) This was cultured for 48 hours and pulsed with tritiated thymidine for a further 24 hours. In the inhibition studies, the cell concentration was 8×10^5 /ml.
(§5) All cells were harvested by vacuum filtration by washing in 250 μl of each of phosphate buffered saline, 5% trichloroacetic acid, 1.0M NaCl and 95% ethanol and subjected to β-scintillatian counting. Similarly, peripheral human blood lymphocytes were isolated and cultured 2×10^5 lymphocytes in CO2 1640TCM 10% HIFCS. Lymphocytes were stimulated with 20 μg/ml PHA, Con A or PWM, and cultured for 48 hrs followed by a 24 hr pulse. […] Cell concentrations were 8×10^4 /well total volume 250 μl. The dpm of the experimental replicates were expressed as a percentage of the mean value of the controls, and the mean value of the experimental replicates calculated.
Data set [5] concerns lymphoblastoid cells (EBV transformed lymphocytes). Description: cells. As to the method:
as §1, §2, §3

The subject of a further data set is HeLa cells. The experiment in a line: cells. As to the method:
as §1, §2, §3

The next data set relates to human fibroblasts. The experiment in a line: cells. The note with it: FB; NSE = no significant effect. As to the method:
as §1, §2, §3

Data set [6] can be described thus: Inhibition of tritiated thymidine uptake, PWM stimulated lymphocytes. The note with it: human, pwm stimulated lymphocytes.
Data set [7] in a line: Inhibition of tritiated thymidine uptake, unstimulated lymphocytes. The note with it: human, unstimulated lymphocytes.
Experimental: as §4, §5
The subject of another data set is Sarcoma 180. Description: Survival of mice with Sarcoma 180, with and without rhamnose. Type of data set: in vivo. The settings on record: aglycone; 100 mg/kg. On the procedure:
Herston White mice with a body weight of approximately 30 g and aged 8-10 weeks served as recipients. Twelve mice were randomly chosen for each experimental group.
Sarcoma 180 tumour cells (5×10^5) were inoculated intraperitoneally into mice. This caused a mortality of 100% with a median survival time of 20 days in the control groups. A standard mixture of glycoalkaloids (BEC) was dissolved in dimethylsulfoxide at a concentration of 0.5 g BEC/100 ml dimethylsulfoxide. Similar solutions were made up but also contained 0.3125, 0.625 and 0.9375 g of rhamnose. These solutions were administered intraperitoneally in concentrations of 8 mg/kg animal weight for BEC (FIG. 9) without (-.tangle-solidup.-), and with 5 mg (-.quadrature.-), 10 mg (-.cndot.-) and 15 mg (-Δ-) rhamnose/kg animal weight. The first dose was given 0.5 hours after administration of the Sarcoma 180 tumour cells. The remaining three doses were given at daily intervals. Dimethylsulfoxide and rhamnose had no effect on Sarcoma 180 activity in the absence of BEC (-.smallcircle.-).

Data set [8] relates to ovarian cancer cells. The experiment in a line: Morphological examination of ovarian cancer cells (Papanicolaou). The note with it: 19.4-96.8 μM/L; FIG. 2A. Type of data set: cell-based, human. As to the method:
Appropriate DMSO cytotoxicity studies were also conducted.
A human ovarian cancer cell line (C180-135) was grown as mono layers and trypsinized to form a cell suspension. The cells were adjusted to a concentration of 1×10^5 /ml (viability ≥95%) and 200 μl placed in each of the eight chambers of microscope chamber slides (Lab Tek, Miles Scientific). After 21 hours preincubation at 37.5° C., 50 μl of supplemented tissue culture media were added to the control chambers. To the other chambers were added 50 μl of solasodine glycosides (BEC) to give final concentrations of 3, 4.8, 6.7, 7.7, 9.6, 11.1 and 15.3 μM/L. Similarly, to a separate chamber slide was added the aglycone solasodine (19.4-96.8 μM/L). The slides were incubated at 37.5° C. for a further 3 hours, and the cells fixed in 95% V/V alcohol and stained by the Papanicolaou method. Two other chamber slides were prepared in a similar manner, but the solasodine glycosides and the aglycone were added at a final concentration of 0.77, 1.5, 2.3, 3.1 and 3.8 μM/L after 7 hours preincubation, and they incubated for a further 17 hours.

For data set [9] the following is noted: 100 mg solasodine/kg; cited from earlier work.
In the next data set the test system is unstimulated lymphocytes. The experiment in a line: Inhibition of tritiated thymidine uptake, unstimulated lymphocytes. The note with it: much higher concentrations; unstimulated lymphocytes (FIG. 8e).
Data set [10] has as its system unstimulated and stimulated lymphocytes. The note with it: equivalent concentrations of DMG.
Experimental: as §4, §5
The test system of a further data set is cancer. The note with it: rats; cited from earlier work.

As for `C[C@H]1CC[C@]2(NC1)O[C@H]1C[C@H]3[C@@H]4CC=C5C[C@@H](O[C@@H]6O[C@H](CO)[C@@H](O[C@@H]7O[C@@H](C)[C@H](O)[C@@H](O)[C@H]7O)[C@H](O)[C@H]6O[C@@H]6O[C@@H](C)[C@H](O)[C@@H](O)[C@H]6O)CC[C@]5(C)[C@H]4CC[C@]3(C)[C@H]1[C@@H]2C` [B-solamarine], in the data set with tumour, the “tumour inhibition” value was “tumour inhibitor”.
As to `O=C(O)CCCc1ccc(N(CCCl)CCCl)cc1` [chlorambucil, reference compound], the CC50 in data set [1] is 33 µM; in [4] it was 24.6 µM; in data set [6], 22 µM; in data set [7], 33 µM. Moreover, in data set [2] (normal versus cancer cells), the “cytotoxicity to normal cells relative to cancer cells” value is on record as “equally or more cytotoxic to normal cells relative to cancer cells”. Further, the IC50 turned out to be 60 µM with ovarian cancer cells [3] (read-out: LD50 (dose to inhibit 50% tritiated thymidine uptake), OvCa); 27 µM in data set [5] (read-out: LD50 (dose to inhibit 50% tritiated thymidine uptake), LCL); 47.5 µM in the data set on HeLa cells (read-out: LD50 (dose to inhibit 50% tritiated thymidine uptake), HeLa). Also, the figures for the “TR50 (thymidine ratio relative to ovarian cancer cells)” value (in data set [5] (LCL / OvCa); with HeLa cells (HeLa / OvCa)) were 0.45 and 0.79, respectively. Also, in the data set with human fibroblasts, the “LD50 (dose to inhibit 50% tritiated thymidine uptake)” value is reported as “NSE”.
As for `C[C@@H]1CC[C@@]2(NC1)O[C@H]1C[C@H]3[C@@H]4CC=C5C[C@@H](O)CC[C@]5(C)[C@H]4CC[C@]3(C)[C@H]1[C@@H]2C` [solasodine], the “effectiveness against S180” value in the data set with Sarcoma 180 is listed as “not effective”. Further, the “lysosomotropic/mitochondrial inhibition” value in [2] is “lack of lysosomotropic/mitochondrial inhibition”. Further, the “cytotoxic effect of aglycone” value is on record as “does not exert a cytotoxic effect” in data set [2] (equivalent concentrations of solamargine (FIG. 6)), “increase in cytotoxicity” in the data set with ovarian cancer cells [3] (higher concentrations (FIG. 7)), “substantial effect on unstimulated lymphocytes” in the data set with unstimulated lymphocytes and “does not exert a cytotoxic effect” in [10]. Besides, the “morphological effect on ovarian cancer cells” value in the data set on ovarian cancer cells [8] is reported as “did not have any observable effect”. Further, the “deaths in mice” value in data set [9] is on record as “does not produce any deaths”.
“rhamnosyl [4→3] Solasodine [Solaplumbin]”: in the data set with cancer, the “anticancer properties” value is “anticancer properties in rats”.
